According to ChEMBL document CHEMBL4507302, “Data for DCP probe TP-020” (2021):

Experiments:
[1] = target: Protein kinase C iota type (Homo sapiens) (UniProt P41743); conditions: Compound concentration 1000.0 nM
[2] = target: Serine/threonine-protein kinase Nek7 (Homo sapiens) (UniProt Q8TDX7); conditions: Compound concentration 1000.0 nM
[3] = target: Tyrosine-protein kinase ZAP-70 (Homo sapiens) (UniProt P43403); conditions: Compound concentration 1000.0 nM
[4] = target: Tyrosine-protein kinase ABL1 (Homo sapiens) (UniProt P00519); conditions: Compound concentration 1000.0 nM
[5] = target: Ankyrin repeat and protein kinase domain-containing protein 1 (Homo sapiens) (UniProt Q8NFD2); conditions: Compound concentration 1000.0 nM
[6] = target: MAP kinase-interacting serine/threonine-protein kinase 2 (Homo sapiens) (UniProt Q9HBH9); conditions: Compound concentration 1000.0 nM
[7] = target: Serine/threonine-protein kinase WNK1 (Homo sapiens) (UniProt Q9H4A3); conditions: Compound concentration 1000.0 nM
[8] = target: Histamine H3 receptor (Homo sapiens) (UniProt Q9Y5N1); conditions: Compound concentration 10.0 uM
[9] = target: Serine/threonine-protein kinase Nek9 (Homo sapiens) (UniProt Q8TD19); conditions: Compound concentration 1000.0 nM
[10] = test system: ALK tyrosine kinase receptor (Homo sapiens), Q9UM73 [L1196M]; conditions: Compound concentration 1000.0 nM
[11] = target: TRAF2 and NCK-interacting protein kinase (Homo sapiens) (UniProt Q9UKE5); conditions: Compound concentration 1000.0 nM
[12] = target: Tyrosine-protein kinase JAK1 (Homo sapiens) (UniProt P23458); conditions: Compound concentration 1000.0 nM
[13] = target: Inhibitor of nuclear factor kappa-B kinase subunit alpha (Homo sapiens) (UniProt O15111); conditions: Compound concentration 1000.0 nM
Chain of Inhibitor of nuclear factor kappa-B kinase subunit alpha (Homo sapiens) (O15111 whole entry): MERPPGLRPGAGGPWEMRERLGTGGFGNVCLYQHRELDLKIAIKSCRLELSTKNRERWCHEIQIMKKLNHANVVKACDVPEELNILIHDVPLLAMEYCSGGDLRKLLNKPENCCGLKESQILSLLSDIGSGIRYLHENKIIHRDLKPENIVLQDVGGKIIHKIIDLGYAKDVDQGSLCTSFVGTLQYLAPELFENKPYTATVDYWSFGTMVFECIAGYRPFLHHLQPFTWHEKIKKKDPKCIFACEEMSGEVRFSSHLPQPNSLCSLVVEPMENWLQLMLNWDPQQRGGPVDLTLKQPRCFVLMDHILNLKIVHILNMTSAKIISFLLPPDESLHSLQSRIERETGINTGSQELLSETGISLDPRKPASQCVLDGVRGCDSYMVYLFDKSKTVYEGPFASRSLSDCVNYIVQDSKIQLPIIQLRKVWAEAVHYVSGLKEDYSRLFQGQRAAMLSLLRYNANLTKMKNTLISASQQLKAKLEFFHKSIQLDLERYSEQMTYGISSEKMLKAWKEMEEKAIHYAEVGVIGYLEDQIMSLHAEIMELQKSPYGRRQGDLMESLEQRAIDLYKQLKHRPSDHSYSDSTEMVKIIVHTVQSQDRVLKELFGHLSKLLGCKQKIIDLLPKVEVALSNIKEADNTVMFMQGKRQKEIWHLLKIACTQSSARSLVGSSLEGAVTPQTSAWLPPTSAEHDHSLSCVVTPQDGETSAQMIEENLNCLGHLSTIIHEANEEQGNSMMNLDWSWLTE

[14] = target: Receptor-type tyrosine-protein kinase FLT3 (Homo sapiens) (UniProt P36888); conditions: Compound concentration 1000.0 nM
[15] = test system: Tyrosine-protein kinase ABL1 (Homo sapiens), P00519 [Q252H]; conditions: Compound concentration 1000.0 nM
[16] = test system: Tyrosine-protein kinase ABL1 (Homo sapiens), P00519 [T315I]; conditions: Compound concentration 1000.0 nM
[17] = target: D(4) dopamine receptor (Homo sapiens) (UniProt P21917); conditions: Compound concentration 10.0 uM
[18] = test system: Epidermal growth factor receptor (Homo sapiens), P00533 [UNDEFINED MUTATION]; conditions: Compound concentration 1000.0 nM
[19] = target: Serine/threonine-protein kinase ULK2 (Homo sapiens) (UniProt Q8IYT8); conditions: Compound concentration 1000.0 nM
[20] = target: Serine/threonine-protein kinase DCLK2 (Homo sapiens) (UniProt Q8N568); conditions: Compound concentration 1000.0 nM
[21] = test system: Phosphatidylinositol 4,5-bisphosphate 3-kinase catalytic subunit alpha isoform (Homo sapiens), P42336 [H1047Y]; conditions: Compound concentration 1000.0 nM
[22] = target: Cyclin-dependent kinase-like 5 (Homo sapiens) (UniProt O76039); conditions: Compound concentration 1000.0 nM
Chain of Cyclin-dependent kinase-like 5 (Homo sapiens) (O76039 whole entry): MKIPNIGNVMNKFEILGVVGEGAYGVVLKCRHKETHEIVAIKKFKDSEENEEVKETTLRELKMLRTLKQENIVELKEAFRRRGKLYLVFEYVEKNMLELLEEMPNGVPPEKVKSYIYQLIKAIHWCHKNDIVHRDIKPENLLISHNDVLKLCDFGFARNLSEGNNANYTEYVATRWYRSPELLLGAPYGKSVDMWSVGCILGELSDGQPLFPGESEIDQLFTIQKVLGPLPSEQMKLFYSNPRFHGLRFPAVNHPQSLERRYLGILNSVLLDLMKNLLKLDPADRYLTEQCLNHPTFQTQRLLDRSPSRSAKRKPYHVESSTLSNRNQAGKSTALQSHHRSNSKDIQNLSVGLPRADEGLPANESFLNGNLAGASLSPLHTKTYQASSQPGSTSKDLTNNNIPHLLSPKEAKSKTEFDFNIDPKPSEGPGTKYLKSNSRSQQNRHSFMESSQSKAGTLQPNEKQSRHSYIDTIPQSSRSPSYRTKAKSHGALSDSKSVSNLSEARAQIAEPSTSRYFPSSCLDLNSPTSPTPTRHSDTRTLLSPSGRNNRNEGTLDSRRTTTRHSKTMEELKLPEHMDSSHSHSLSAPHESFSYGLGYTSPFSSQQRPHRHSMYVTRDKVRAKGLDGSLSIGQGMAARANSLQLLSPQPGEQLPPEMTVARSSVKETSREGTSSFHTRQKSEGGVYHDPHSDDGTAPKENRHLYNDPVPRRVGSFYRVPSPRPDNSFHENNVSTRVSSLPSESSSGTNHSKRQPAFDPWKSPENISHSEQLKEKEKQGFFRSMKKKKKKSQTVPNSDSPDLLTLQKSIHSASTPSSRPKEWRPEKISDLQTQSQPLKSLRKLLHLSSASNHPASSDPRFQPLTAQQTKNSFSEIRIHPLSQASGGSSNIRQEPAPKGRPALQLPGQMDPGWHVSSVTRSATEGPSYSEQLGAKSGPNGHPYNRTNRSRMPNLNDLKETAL

[23] = target: Mitogen-activated protein kinase 13 (Homo sapiens) (UniProt O15264); conditions: Compound concentration 1000.0 nM
[24] = target: Serine/threonine-protein kinase N1 (Homo sapiens) (UniProt Q16512); conditions: Compound concentration 1000.0 nM
[25] = target: Ephrin type-A receptor 2 (Homo sapiens) (UniProt P29317); conditions: Compound concentration 1000.0 nM
[26] = target: cAMP-dependent protein kinase catalytic subunit alpha (Homo sapiens) (UniProt P17612); conditions: Compound concentration 1000.0 nM
[27] = target: Tyrosine-protein kinase Tec (Homo sapiens) (UniProt P42680); conditions: Compound concentration 1000.0 nM
[28] = target: Sodium-dependent dopamine transporter (Homo sapiens) (UniProt Q01959); conditions: Compound concentration 10.0 uM
[29] = target: BMP-2-inducible protein kinase (Homo sapiens) (UniProt Q9NSY1); conditions: Compound concentration 1000.0 nM
Chain of BMP-2-inducible protein kinase (Homo sapiens) (Q9NSY1 whole entry, looked up): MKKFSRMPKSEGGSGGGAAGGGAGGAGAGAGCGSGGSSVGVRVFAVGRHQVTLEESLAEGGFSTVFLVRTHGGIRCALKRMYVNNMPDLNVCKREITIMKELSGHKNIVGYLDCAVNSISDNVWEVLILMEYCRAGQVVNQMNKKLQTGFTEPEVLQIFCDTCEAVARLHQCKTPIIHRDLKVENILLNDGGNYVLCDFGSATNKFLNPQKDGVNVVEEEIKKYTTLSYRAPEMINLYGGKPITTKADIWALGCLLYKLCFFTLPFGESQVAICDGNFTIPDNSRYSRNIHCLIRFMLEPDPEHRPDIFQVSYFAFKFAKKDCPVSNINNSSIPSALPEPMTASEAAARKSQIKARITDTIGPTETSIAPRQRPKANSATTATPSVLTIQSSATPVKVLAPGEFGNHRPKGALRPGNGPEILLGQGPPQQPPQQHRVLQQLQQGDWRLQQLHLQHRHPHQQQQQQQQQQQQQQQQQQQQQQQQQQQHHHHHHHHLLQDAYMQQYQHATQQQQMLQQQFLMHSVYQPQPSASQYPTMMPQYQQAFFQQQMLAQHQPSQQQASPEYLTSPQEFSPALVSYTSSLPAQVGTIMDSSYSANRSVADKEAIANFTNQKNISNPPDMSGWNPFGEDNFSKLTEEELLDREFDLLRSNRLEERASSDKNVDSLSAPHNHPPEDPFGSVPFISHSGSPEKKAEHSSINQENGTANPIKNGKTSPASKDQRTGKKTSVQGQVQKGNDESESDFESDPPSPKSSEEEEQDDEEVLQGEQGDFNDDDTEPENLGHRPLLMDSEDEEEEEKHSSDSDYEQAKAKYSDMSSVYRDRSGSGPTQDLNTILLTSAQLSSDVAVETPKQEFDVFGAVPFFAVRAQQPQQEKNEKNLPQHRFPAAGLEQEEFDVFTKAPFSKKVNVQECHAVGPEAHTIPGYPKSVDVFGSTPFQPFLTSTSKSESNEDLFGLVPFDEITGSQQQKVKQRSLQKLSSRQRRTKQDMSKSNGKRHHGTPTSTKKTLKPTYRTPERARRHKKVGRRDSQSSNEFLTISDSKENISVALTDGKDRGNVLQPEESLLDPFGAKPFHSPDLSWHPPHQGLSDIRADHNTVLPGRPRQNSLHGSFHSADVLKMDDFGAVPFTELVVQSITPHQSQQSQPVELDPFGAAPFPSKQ

[30] = target: Ribosomal protein S6 kinase beta-1 (Homo sapiens) (UniProt P23443); conditions: Compound concentration 1000.0 nM
[31] = target: Mitogen-activated protein kinase 15 (Homo sapiens) (UniProt Q8TD08); conditions: Compound concentration 1000.0 nM
Chain of Mitogen-activated protein kinase 15 (Homo sapiens) (Q8TD08 whole entry): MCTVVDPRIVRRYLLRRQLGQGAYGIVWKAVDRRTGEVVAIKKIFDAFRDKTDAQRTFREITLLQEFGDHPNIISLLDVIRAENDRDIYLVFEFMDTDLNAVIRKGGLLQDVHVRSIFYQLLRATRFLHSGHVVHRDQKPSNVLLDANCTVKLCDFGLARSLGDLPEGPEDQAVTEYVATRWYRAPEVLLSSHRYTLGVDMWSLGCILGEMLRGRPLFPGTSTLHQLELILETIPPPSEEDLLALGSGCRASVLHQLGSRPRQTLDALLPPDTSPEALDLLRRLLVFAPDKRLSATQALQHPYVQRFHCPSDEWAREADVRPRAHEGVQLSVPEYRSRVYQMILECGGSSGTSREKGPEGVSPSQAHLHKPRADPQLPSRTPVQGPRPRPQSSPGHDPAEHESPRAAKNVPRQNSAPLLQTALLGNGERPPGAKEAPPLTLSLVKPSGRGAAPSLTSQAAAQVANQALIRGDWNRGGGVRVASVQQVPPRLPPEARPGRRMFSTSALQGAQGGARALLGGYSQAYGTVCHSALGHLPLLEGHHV

[32] = target: Calcium/calmodulin-dependent protein kinase type IV (Homo sapiens) (UniProt Q16566); conditions: Compound concentration 1000.0 nM
[33] = target: Mitogen-activated protein kinase 9 (Homo sapiens) (UniProt P45984); conditions: Compound concentration 1000.0 nM
[34] = target: Vascular endothelial growth factor receptor 2 (Homo sapiens) (UniProt P35968); conditions: Compound concentration 1000.0 nM
[35] = target: Cyclin-dependent kinase 2 homolog (Plasmodium falciparum (isolate 3D7)) (UniProt P61075); conditions: Compound concentration 1000.0 nM
Chain of Cyclin-dependent kinase 2 homolog (Plasmodium falciparum (isolate 3D7)) (P61075 whole entry): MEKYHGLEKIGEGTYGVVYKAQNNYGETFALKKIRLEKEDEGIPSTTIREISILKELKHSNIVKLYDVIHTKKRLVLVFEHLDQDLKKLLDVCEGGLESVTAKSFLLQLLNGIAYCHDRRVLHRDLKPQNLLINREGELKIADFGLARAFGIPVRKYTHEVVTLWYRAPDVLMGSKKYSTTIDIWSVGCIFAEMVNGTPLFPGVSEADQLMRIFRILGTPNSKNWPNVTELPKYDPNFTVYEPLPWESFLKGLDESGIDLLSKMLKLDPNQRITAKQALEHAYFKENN

[36] = target: Serine/threonine-protein kinase 26 (Homo sapiens) (UniProt Q9P289); conditions: Compound concentration 1000.0 nM
[37] = target: Tyrosine-protein kinase ABL1 (Homo sapiens) (UniProt P00519); conditions: Compound concentration 1000.0 nM; remark: listed apart in the source
[38] = target: Activin receptor type-2B (Homo sapiens) (UniProt Q13705); conditions: Compound concentration 1000.0 nM
[39] = target: Receptor-interacting serine/threonine-protein kinase 2 (Homo sapiens) (UniProt O43353); conditions: Compound concentration 1000.0 nM
Chain of Receptor-interacting serine/threonine-protein kinase 2 (Homo sapiens) (O43353 whole entry): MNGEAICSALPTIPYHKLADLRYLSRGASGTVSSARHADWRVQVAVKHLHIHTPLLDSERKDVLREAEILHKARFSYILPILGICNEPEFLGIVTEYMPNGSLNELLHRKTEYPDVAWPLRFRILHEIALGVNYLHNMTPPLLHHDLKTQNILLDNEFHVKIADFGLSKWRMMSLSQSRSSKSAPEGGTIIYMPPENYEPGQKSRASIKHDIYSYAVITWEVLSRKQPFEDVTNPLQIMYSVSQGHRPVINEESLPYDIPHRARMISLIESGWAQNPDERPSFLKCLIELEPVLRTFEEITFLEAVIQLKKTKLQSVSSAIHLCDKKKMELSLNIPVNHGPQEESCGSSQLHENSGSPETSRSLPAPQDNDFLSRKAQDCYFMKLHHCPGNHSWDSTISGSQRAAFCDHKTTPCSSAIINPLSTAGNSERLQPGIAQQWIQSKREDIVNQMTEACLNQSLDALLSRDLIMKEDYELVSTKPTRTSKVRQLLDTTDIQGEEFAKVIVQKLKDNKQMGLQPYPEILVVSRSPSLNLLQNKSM

[40] = target: Tyrosine-protein kinase ITK/TSK (Homo sapiens) (UniProt Q08881); conditions: Compound concentration 1000.0 nM
[41] = target: Cyclin-dependent kinase-like 1 (Homo sapiens) (UniProt Q00532); conditions: Compound concentration 1000.0 nM
[42] = target: SRSF protein kinase 1 (Homo sapiens) (UniProt Q96SB4); conditions: Compound concentration 1000.0 nM
[43] = test system: Proto-oncogene tyrosine-protein kinase receptor Ret (Homo sapiens), P07949 [V804L]; conditions: Compound concentration 1000.0 nM
[44] = target: Serine/threonine-protein kinase PLK4 (Homo sapiens) (UniProt O00444); conditions: Compound concentration 1000.0 nM
[45] = target: Mitogen-activated protein kinase 8 (Homo sapiens) (UniProt P45983); conditions: Compound concentration 1000.0 nM
Chain of Mitogen-activated protein kinase 8 (Homo sapiens) (P45983 whole entry): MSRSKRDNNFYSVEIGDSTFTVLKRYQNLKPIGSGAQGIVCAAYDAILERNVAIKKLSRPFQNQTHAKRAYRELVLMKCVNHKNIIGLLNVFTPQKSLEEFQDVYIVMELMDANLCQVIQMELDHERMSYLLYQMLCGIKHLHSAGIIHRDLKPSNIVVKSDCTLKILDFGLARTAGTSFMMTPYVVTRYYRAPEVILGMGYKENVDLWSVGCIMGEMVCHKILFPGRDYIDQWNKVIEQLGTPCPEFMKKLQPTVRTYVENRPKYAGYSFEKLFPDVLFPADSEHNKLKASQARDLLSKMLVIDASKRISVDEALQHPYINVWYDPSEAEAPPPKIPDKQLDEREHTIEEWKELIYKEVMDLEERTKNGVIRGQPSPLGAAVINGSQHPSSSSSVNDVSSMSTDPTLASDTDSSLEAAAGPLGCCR

Chain of Serine/threonine-protein kinase Nek7 (Homo sapiens) (Q8TDX7 whole entry, looked up): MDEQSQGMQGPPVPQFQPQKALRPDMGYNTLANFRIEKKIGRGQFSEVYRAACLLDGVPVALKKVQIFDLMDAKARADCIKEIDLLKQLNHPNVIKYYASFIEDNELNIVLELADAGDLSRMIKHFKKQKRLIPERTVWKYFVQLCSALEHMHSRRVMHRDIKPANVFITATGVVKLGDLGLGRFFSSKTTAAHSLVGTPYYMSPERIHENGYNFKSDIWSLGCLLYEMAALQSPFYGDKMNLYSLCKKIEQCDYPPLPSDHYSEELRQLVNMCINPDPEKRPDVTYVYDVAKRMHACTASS

Nc1cnc(N2CCc3cc(S(=O)(=O)Nc4c(F)cc(Cl)cc4F)cc(N4CCCC4=O)c32)nc1
inactive: residual activity [1] 100% | residual activity [2] 96% | residual activity [3] 85% | residual activity [4] 100% | residual activity [5] 100% | residual activity [6] 100% | residual activity [7] 100% | inhibition [8] -1.21% | residual activity [9] 98% | residual activity [10] 81% | residual activity [11] 100% | residual activity [12] 93% | residual activity [13] 100% | residual activity [14] 81% | residual activity [15] 100% | residual activity [16] 100% | inhibition [17] -5.02% | residual activity [18] 71% | residual activity [19] 100% | residual activity [20] 100% | residual activity [21] 100% | residual activity [22] 88% | residual activity [23] 100% | residual activity [24] 95% | residual activity [25] 100% | residual activity [26] 100% | residual activity [27] 99% | inhibition [28] 20.2% | residual activity [29] 88% | residual activity [30] 83% | residual activity [31] 84% | residual activity [32] 96% | residual activity [33] 84% | residual activity [34] 81% | residual activity [35] 100% | residual activity [36] 83% | residual activity [37] 97% | residual activity [38] 80% | residual activity [39] 53% | residual activity [40] 100% | residual activity [41] 85% | residual activity [42] 81% | residual activity [43] 99% | residual activity [44] 100% | residual activity [45] 78%

Cn1nc(C(F)(F)F)cc1-c1cnc(N2CCc3cc(S(=O)(=O)Nc4c(F)cc(Cl)cc4F)cc(N4CCCC4=O)c32)nc1 [TP-020]
inactive: residual activity [1] 94% | residual activity [2] 100% | residual activity [3] 93% | residual activity [4] 73% | residual activity [5] 96% | residual activity [6] 94% | residual activity [7] 98% | inhibition [8] 0.43% | residual activity [9] 100% | residual activity [10] 78% | residual activity [11] 100% | residual activity [12] 96% | residual activity [13] 99% | residual activity [14] 85% | residual activity [15] 85% | residual activity [16] 74% | inhibition [17] 9.09% | residual activity [18] 100% | residual activity [19] 74% | residual activity [20] 100% | residual activity [21] 76% | residual activity [22] 91% | residual activity [23] 100% | residual activity [24] 100% | residual activity [25] 100% | residual activity [26] 100% | residual activity [27] 79% | inhibition [28] 14.5% | residual activity [29] 92% | residual activity [30] 78% | residual activity [31] 78% | residual activity [32] 100% | residual activity [33] 95% | residual activity [34] 87% | residual activity [35] 73% | residual activity [36] 73% | residual activity [37] 95% | residual activity [38] 87% | residual activity [39] 82% | residual activity [40] 97% | residual activity [41] 77% | residual activity [42] 77% | residual activity [43] 100% | residual activity [44] 77% | residual activity [45] 100%
